Laboratory results from patent US20210283139A1, “BIFUNCTIONAL MOLECULES FOR TARGETING UCHL5” (AMPHISTA THERAPEUTICS LTD, priority 2018, published 2021).

Tests used:
Type in all cases: cell-based
[1] = target: T1, Brd4 (Homo sapiens, UniProt O60885); assay: Mechanistic evaluation of Brd4 degradation in HEK293 cells (degrasyn or I-BET726 pre-treatment); conditions: 6 h
T1 construct: endogenous in cells; host or cells: HEK293, HAP1, MV4-11
Experimental: (§1) Immunoblotting. proteins were separated by SDS-PAGE on NuPage 4-12% Bis-Tris gels, followed by transfer to Amersham Protran 0.45 NC nitrocellulose membrane (GE Healthcare) using wet transfer. Membranes were blocked using 5% w/v milk in Tris-buffered saline (TBS) with 0.1% Tween-20. Blots were probed (overnight at 4° C.) using anti-Brd2 (Abcam ab139690, 1:2,000 dilution), anti-Brd3 (Abcam ab50818, 1:500 dilution), and anti-Brd4 (Abcam ab128874, 1:1,000 dilution) primary antibodies, as appropriate. The next day, blots were washed with TBST and incubated (1 hr at RT) with anti-Tubulin hFAB-rhodamine (BioRad, 12004166) primary antibody, and either anti-rabbit IRDye 800CW (Licor 1:10,000 dilution) or anti-mouse IRDye 800CW (Licor 1:10,000 dilution) secondary antibody. Blots were developed using a Bio-Rad ChemiDoc MP Imaging System, and band quantification was performed using Image Studio software (LiCor). Band intensities were normalized to the tubulin loading control and reported as % of the average 0.1% DMSO vehicle intensity. Degradation data was plotted and analysed using Prism (Graphpad, version 8).
(§2) HEK293 (1×10^6) cells were seeded in standard 6-well plates (2 mL medium) overnight before pre-treatment with inhibitors (5 μM degrasyn or 1 μM I-BET726). After a 0.5 h pre-incubation time, cells were subsequently treated with vehicle, 0.1 μM MZ1 or 0.1 μM 05IB9, yielding a final overall DMSO concentration of 0.2% v/v. After 6 h incubation, cells were washed with DPBS (Gibco) and lysed using 85 μL RIPA buffer (Sigma-Aldrich) supplemented with cOmplete Mini EDTA-free protease inhibitor cocktail (Roche) and benzonase. Lysates were clarified by centrifugation (20,000 g, 10 min, 4° C.) and the total protein content of the supernatant was quantified using a Bradford colorimetric assay. Samples were prepared using equal amounts of total protein and LDS sample buffer (Invitrogen).

[2] = target: T1, Brd4; assay: Mechanistic evaluation of Brd4 degradation in HAP1 cells (bortezomib, degrasyn or I-BET726 pre-treatment); conditions: 6 h
Experimental: as §1
as §2, with “HAP1” for “HEK293”, “(10 μM bortezomib, 5” for “(5”
Representative blots from HAP1 lysates in FIG. 9 show depletion of Brd4 protein levels following 6 h treatment with 0.1 μM 05IB9 or MZ1, in the presence and absence of 5 μM degrasyn and 10 μM bortezomib. Brd4 band intensities were normalized to β-tubulin loading control and reported in FIG. 9B as % of the average 0.1% DMSO vehicle intensity. Each bar is mean±SEM of three independent experiments performed in duplicate (n=3). […] Furthermore, excess […] competes with 05IB9, resulting in reduced degradation of Brd4.

[3] = target: T1, Brd4; assay: Immunoblot in MV4-11 cells; conditions: MV4-11, 6 h, increasing concentrations
Experimental: (§3) MV4-11 (0.7×10^6 cells/mL) were seeded in 10 cm plates (10 mL DMEM supplemented with 10% FBS and L-glutamine) overnight before treatment with compounds at the desired concentration and with a final DMSO concentration of 0.1% v/v. After 6 h incubation time, cells were washed 2× with DPBS (Gibco) and lysed using 85 μL RIPA buffer (Sigma-Aldrich) supplemented with cOmplete Mini EDTA-free protease inhibitor cocktail (Roche) and benzonase. Lysates were clarified by centrifugation (20,000 g, 10 min, 4° C.) and the total protein content of the supernatant was quantified using a Bradford colorimetric assay. Samples were prepared using equal amounts of total protein and LDS sample buffer (Invitrogen). For immunoblot analysis, the following antibodies were used: anti-Brd2 (ab139690, 1:2,000 dilution), anti-Brd3 (ab50818, 1:500 dilution), anti-Brd4 (ab128874, 1:1,000 dilution), anti-c-myc (ab32072, 1:1,000 dilution), anti- total PARP (BD Bioscience #556494; 1:1,000 dilution), anti-cleaved PARP (CST-9541T, 1:1,000 dilution), and anti-Tubulin hFAB-rhodamine (BioRad, 12004166, 1:10,000 dilution).

[4] = system: c-MYC; assay: Immunoblot of c-MYC levels in MV4-11 cells; conditions: MV4-11, 6 h
Experimental: as §3

[5] = system: PARP; assay: Immunoblot of total and cleaved PARP in MV4-11 cells; conditions: MV4-11, 6 h
Experimental: as §3

[6] = target: Brd2 (Homo sapiens, UniProt P25440); assay: Immunoblot in MV4-11 cells; parameters: endogenous in cells; host or cells: MV4-11; conditions: MV4-11, 6 h, increasing concentrations
Experimental: as §3

[7] = target: Brd3 (Homo sapiens, UniProt Q15059); assay: Immunoblot in MV4-11 cells; parameters: endogenous in cells; host or cells: MV4-11; conditions: MV4-11, 6 h, increasing concentrations
Experimental: as §3

[8] = target: T1, Brd4; assay: Proteasome dependency of Brd4 degradation in HEK293 cells (bortezomib pre-treatment); conditions: 6 h
Experimental: as §1
as §2, with “10” for “inhibitors (5”, “bortezomib.” for “degrasyn or 1 μM I-BET726).”, “1” for “0.1”, “05IB6,” for “05IB9,”

Brd2, sequence (P25440 whole entry): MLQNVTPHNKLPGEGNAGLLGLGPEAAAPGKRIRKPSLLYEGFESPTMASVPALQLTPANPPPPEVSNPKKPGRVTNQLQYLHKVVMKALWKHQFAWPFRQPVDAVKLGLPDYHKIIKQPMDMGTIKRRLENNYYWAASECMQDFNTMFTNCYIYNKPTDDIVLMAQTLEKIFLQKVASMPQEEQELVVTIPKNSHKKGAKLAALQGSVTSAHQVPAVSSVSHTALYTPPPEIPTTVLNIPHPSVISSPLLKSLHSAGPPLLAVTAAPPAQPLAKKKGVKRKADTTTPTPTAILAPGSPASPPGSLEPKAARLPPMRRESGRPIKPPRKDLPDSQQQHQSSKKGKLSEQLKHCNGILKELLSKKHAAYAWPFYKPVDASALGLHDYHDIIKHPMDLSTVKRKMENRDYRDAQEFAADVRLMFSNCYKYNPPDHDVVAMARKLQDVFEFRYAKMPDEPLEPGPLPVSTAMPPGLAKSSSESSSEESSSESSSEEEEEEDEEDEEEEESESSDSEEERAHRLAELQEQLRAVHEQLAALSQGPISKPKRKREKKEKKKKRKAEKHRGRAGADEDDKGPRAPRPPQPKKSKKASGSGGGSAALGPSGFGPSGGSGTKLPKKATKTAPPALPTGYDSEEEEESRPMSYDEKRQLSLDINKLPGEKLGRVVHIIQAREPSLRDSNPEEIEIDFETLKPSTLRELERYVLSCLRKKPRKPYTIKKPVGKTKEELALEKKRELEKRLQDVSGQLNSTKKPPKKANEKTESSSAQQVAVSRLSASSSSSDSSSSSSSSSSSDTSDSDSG
Brd3, sequence (Q15059 whole entry): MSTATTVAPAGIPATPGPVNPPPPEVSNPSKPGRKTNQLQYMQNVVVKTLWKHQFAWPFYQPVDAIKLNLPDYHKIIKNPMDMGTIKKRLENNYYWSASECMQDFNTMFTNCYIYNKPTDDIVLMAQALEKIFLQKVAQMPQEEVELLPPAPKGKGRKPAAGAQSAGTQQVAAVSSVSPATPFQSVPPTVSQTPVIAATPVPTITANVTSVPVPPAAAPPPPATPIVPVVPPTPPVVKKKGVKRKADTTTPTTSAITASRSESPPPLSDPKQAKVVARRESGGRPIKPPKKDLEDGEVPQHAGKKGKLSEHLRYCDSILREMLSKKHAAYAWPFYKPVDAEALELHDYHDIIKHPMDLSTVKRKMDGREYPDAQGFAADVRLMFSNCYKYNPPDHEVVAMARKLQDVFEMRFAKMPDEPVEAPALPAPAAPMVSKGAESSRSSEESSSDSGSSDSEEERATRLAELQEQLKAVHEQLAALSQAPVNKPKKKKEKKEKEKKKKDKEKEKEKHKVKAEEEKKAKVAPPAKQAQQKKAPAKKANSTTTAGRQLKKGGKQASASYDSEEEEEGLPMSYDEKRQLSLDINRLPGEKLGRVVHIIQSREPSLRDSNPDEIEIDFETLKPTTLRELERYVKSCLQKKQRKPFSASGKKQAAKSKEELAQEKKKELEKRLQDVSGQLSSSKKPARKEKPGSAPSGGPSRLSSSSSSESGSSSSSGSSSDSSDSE

CCCC(NC(=O)/C(C#N)=C/c1nccs1)c1ccc(OCCOCCOCCOCCOCCOCCOCCNC(=O)c2ccc(-c3ccc4c(c3)[C@H](Nc3ccc(Cl)cc3)C[C@H](C)N4C(C)=O)cc2)cc1 (some centres unmarked) [Example 05IB9]
Brd4 degradation in the presence of degrasyn or I-BET726 ([1]; HEK293, 0.1 μM compound, 0.5 h pre-treatment with 5 μM degrasyn or 1 μM I-BET726): completely blocked in the presence of either degrasyn or I-BET726 | Brd4 protein levels ([1]; HEK293, 0.1 μM): depletion | Brd4 degradation in the presence of bortezomib or degrasyn ([2]; HAP1, 0.1 μM compound, 0.5 h pre-treatment with 10 μM bortezomib or 5 μM degrasyn): completely blocked in the presence of bortezomib and degrasyn | Brd4 protein levels ([2]; HAP1, 0.1 μM): depletion | Brd4 levels [3]: depletion | decrease in c-MYC compared with inhibitor and negative control [4]: greater than inhibitor (I-BET726) alone and the negative control (05IB11) | c-MYC levels ([4]; increasing concentrations): depletion | increase in C-PARP compared with inhibitor and negative control [5]: greater than inhibitor (I-BET726) alone and the negative control (05IB11) | cleaved PARP ([5]; increasing concentrations): increase | total PARP levels ([5]; increasing concentrations): depletion | Brd2 levels [6]: depletion | Brd3 levels [7]: depletion

CCCC(NC(=O)/C(C#N)=C/c1cccc(Br)n1)c1ccc(OCCOCCOCCOCCOCCOCCOCCNC(=O)c2ccc(-c3ccc4c(c3)[C@H](Nc3ccc(Cl)cc3)C[C@H](C)N4C(C)=O)cc2)cc1 (some centres unmarked) [Example 05IB6]
Brd4 degradation in the presence of bortezomib ([8]; HEK293, 1 μM compound, 0.5 h pre-treatment with 10 μM bortezomib): completely blocked | Brd4 protein levels ([8]; HEK293, 1 μM): depletion
